Data: patent US7309698B2, “Compositions for delivering bisphosphonates” (Emisphere Technologies, Inc., priority 2001, dated 2007)
Several values for one entry are separate records, joined by “and”; a condition that tells them apart may be missing. Equal entries are not always repeated.

Experiments:
[1] = Solubility of delivery agent compound; type: physicochemical; details: 350 µl 2N NaOH + 650 µl water, aqueous buffer, thermodynamic from solid; 200 mg+350 μl 2N NaOH+650 μl H2O, pH=7.67
Protocol: The reaction mixture was warmed to 25° C. and stirred for 64 hours. The volatiles were removed in vacuo. The residue was stirred in 2N aqueous sodium hydroxide for one hour and acidified with 2M aqueous sulfuric acid. The solid was recrystallized twice from ethanol/water to give a tan solid. Isolation by filtration afforded 53.05 g of (52% yield) of 2-(4-(N-salicyloyl) aminophenyl) propionic acid. Solubility: 200 mg/mL (200 mg+350 μl 2N NaOH+650 μl H2O, pH=7.67). Anal. Calculated: C=67.36, H=5.3, N=4.91. Found: C=67.05, H=5.25, N=4.72.
A solution of 53.05 g (0.186 mol) of 2-(4-(N-salicyloyl)aminophenyl) propionic acid and 300 mL of ethanol was treated with 7.59 g (0.190 mol) of NaOH dissolved in 22 mL of water. The reaction mixture was stirred for 30 minutes at 25° C. and for 30 minutes at 0° C. The resulting pale yellow solid was isolated by filtration to give 52.61 g of sodium 2-(4-(N-salicyloyl) aminophenyl) propionate. Solubility: 200 mg/mL clear solution, pH=6.85. Anal. Calculated: C=60.45, H=5.45, N=3.92, Na=6.43. Found: C=60.84, H=5.87, N=3.85, Na=6.43. Melting point 236-238° C.

melting point | solubility [1] [mg/mL] | Structure (SMILES)
65 to 68 °C and 60 to 64 °C |  | O=C(O)CCCCCCCOc1ccccc1O [Compound 7, 8-(2-Hydroxyphenoxy)octanoic acid]
 | 200 | CC(C(=O)O)c1ccc(NC(=O)c2ccccc2O)cc1 (stereo not drawn) [Compound 4, 2-(4-(N-salicyloyl)aminophenyl)propionic acid]
236 to 238 °C |  | CC(C(=O)[O-])c1ccc(NC(=O)c2ccccc2O)cc1.[Na+] (stereo not drawn) [Compound 4 Sodium Salt, Sodium 2-(4-(N-salicyloyl)aminophenyl)propionate]
